Where two headings read alike, the source gives them in different places.
Columns and labels:
D3 = D3 (Homo sapiens, UniProt P35462); assay: Radioligand displacement, D3; assay type: binding
H1 = H1 (Homo sapiens, UniProt P35367); assay: Radioligand displacement, H1; assay type: binding
[1] = target: M1 muscarinic receptors (M1-R) (Homo sapiens, UniProt P11229); assay: Radioligand displacement, M1; assay type: binding
M2 = M2 (Homo sapiens, UniProt P08172); assay: biochemical; assay type: binding
5-HT1a = target: T1, 5-HT1a (Homo sapiens, UniProt P08908); assay: Radioligand displacement, 5-HT1a; assay type: binding
T1 sequence (P08908 1-422): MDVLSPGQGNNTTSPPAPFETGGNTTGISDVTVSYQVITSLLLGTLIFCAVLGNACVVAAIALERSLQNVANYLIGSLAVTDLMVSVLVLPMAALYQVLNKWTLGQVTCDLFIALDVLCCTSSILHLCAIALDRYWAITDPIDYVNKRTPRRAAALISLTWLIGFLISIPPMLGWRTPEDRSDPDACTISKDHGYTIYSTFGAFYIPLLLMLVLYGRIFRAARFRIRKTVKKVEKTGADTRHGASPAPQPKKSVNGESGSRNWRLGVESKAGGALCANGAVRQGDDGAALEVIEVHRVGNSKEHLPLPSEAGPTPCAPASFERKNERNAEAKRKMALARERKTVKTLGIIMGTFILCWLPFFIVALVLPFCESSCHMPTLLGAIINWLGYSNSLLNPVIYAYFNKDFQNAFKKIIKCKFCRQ

GABAA = assay: Radioligand displacement, GABAA; assay type: binding; conditions: [3H] radioligand Muscimol; Rat, forebrain
DAT = DAT (Homo sapiens, UniProt Q01959); assay: Radioligand displacement, DAT
5-HT1d = 5-HT1d (Homo sapiens, UniProt P28221); assay: Radioligand displacement, 5-HT1d
Chain of 5-HT1d (P28221 whole entry): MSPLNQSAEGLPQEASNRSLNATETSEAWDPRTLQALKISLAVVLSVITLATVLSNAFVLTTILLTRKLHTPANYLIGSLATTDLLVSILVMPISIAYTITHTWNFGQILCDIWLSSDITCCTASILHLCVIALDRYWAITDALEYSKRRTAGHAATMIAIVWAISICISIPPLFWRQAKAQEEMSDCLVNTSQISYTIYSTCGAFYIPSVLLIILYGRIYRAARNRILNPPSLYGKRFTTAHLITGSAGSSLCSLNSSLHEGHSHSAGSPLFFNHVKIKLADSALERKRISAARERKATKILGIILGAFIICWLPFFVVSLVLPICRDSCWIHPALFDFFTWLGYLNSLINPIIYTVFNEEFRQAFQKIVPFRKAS

5-HT1b = 5-HT1b (Homo sapiens, UniProt P28222); assay: Radioligand displacement, 5-HT1b; assay type: binding
Chain of 5-HT1b (P28222 whole entry): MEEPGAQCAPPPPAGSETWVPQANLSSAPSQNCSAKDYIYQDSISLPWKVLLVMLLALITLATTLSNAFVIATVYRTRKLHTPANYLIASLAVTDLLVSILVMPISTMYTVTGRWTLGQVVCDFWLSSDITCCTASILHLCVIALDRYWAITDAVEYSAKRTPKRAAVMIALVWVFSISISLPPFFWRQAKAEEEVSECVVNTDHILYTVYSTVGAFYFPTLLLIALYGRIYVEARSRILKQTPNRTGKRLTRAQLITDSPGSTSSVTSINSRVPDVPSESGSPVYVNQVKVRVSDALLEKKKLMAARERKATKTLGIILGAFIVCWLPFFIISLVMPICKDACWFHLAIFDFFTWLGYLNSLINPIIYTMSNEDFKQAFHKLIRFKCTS

β2 = β2 (Homo sapiens, UniProt P07550); assay: Radioligand displacement, β2; assay type: binding
Chain of β2 (P07550 whole entry): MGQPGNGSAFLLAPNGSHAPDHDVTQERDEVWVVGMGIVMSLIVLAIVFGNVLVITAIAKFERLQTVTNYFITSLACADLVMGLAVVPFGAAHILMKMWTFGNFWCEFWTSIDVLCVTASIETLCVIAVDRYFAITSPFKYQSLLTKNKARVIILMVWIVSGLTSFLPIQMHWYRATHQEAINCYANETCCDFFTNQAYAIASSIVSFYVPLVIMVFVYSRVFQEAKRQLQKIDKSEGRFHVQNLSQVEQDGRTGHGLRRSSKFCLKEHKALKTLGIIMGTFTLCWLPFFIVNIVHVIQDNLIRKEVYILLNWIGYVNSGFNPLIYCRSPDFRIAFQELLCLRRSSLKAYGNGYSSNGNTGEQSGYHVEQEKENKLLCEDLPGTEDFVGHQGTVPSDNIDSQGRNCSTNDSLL

β1 = β1 (Homo sapiens, UniProt P08588); assay: Radioligand displacement, β1; assay type: binding
H2 = H2 (Homo sapiens, UniProt P25021); assay: Radioligand displacement, H2
Chain of H2 (P25021 whole entry): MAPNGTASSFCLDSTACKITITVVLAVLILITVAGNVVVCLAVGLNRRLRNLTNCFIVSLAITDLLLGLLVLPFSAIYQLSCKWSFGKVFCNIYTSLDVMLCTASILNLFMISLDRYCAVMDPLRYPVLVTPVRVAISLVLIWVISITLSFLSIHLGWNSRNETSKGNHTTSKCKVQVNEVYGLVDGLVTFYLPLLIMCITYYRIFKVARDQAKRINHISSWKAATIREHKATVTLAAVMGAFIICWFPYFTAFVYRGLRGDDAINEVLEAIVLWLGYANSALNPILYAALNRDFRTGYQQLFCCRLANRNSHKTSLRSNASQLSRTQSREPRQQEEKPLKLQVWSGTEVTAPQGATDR

[2] = Caco-2 cell monolayer permeation; conditions: human, Caco-2, pH 7.4
M3 = M3 (Homo sapiens, UniProt P20309); assay: Radioligand displacement, M3; assay type: binding
Chain of M3 (P20309 whole entry): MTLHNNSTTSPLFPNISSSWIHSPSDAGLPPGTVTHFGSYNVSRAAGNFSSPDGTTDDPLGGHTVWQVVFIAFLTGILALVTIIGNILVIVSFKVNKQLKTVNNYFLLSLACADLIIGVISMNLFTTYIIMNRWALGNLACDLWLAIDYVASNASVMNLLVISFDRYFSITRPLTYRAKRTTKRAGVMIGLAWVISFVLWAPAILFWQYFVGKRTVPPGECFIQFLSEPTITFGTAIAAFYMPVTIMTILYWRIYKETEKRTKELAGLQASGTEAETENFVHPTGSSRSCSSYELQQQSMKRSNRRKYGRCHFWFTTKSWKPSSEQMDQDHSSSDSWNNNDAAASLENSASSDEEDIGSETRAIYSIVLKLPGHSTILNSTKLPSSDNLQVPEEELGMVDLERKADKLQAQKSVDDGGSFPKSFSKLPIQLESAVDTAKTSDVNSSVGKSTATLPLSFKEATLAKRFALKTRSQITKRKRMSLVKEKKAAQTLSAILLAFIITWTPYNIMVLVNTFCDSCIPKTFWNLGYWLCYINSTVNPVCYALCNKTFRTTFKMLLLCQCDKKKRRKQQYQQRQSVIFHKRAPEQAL

α2A = target: T2, α2A (Homo sapiens, UniProt P08913); assay: Radioligand displacement, α2A
T2 sequence (P08913 1-465): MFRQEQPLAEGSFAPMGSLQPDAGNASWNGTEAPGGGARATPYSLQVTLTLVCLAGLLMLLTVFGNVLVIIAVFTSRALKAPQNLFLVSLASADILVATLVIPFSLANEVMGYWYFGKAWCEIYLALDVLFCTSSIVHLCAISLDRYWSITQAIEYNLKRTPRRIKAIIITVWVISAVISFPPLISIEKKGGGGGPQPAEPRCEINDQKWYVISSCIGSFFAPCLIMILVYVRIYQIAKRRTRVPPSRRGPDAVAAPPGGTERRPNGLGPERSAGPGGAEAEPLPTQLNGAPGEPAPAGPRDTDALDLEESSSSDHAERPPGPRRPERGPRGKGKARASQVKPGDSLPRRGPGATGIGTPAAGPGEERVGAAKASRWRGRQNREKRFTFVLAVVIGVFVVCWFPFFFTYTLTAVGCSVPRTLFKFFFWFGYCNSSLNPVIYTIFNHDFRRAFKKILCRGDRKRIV

M5 = M5 (Homo sapiens, UniProt P08912); assay: Radioligand displacement, M5; assay type: binding
Chain of M5 (P08912 whole entry): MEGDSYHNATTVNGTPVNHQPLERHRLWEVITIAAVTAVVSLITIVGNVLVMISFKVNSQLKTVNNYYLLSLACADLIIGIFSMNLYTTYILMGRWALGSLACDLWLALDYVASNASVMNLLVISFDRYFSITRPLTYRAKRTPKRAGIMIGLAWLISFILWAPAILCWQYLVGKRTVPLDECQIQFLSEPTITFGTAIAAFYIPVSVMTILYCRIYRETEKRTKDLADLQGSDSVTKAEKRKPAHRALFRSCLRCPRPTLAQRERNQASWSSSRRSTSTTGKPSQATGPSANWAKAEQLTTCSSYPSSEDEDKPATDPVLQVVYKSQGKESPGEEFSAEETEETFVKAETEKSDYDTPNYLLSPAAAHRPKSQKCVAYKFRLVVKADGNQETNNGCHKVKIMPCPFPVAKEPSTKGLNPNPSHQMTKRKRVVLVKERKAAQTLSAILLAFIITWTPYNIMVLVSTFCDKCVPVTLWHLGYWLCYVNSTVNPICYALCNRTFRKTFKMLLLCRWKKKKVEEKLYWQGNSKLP

α1D = target: T3, α1D (Homo sapiens, UniProt P25100); assay: Radioligand displacement, α1D; assay type: binding
T3 sequence (P25100 1-572): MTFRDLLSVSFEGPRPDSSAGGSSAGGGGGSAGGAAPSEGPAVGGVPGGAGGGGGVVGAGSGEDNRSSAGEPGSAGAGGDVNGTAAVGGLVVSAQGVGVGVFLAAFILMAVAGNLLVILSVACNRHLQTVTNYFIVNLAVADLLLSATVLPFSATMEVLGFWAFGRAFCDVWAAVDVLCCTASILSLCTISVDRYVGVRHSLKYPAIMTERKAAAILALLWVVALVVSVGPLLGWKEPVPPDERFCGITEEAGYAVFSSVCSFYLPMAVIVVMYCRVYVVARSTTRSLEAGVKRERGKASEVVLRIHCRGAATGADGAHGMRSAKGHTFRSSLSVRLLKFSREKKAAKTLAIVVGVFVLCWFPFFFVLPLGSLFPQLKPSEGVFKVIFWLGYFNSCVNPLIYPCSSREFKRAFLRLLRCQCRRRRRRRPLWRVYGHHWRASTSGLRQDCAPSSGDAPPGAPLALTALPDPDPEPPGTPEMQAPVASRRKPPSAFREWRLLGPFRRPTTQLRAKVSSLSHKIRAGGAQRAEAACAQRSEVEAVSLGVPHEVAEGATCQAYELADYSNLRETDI

[3] = target: noradrenaline (norepinephrine) transporter (NET) (Homo sapiens, UniProt P23975); assay: Radioligand displacement, NET; assay type: binding
Chain of noradrenaline (norepinephrine) transporter (NET) (P23975 whole entry): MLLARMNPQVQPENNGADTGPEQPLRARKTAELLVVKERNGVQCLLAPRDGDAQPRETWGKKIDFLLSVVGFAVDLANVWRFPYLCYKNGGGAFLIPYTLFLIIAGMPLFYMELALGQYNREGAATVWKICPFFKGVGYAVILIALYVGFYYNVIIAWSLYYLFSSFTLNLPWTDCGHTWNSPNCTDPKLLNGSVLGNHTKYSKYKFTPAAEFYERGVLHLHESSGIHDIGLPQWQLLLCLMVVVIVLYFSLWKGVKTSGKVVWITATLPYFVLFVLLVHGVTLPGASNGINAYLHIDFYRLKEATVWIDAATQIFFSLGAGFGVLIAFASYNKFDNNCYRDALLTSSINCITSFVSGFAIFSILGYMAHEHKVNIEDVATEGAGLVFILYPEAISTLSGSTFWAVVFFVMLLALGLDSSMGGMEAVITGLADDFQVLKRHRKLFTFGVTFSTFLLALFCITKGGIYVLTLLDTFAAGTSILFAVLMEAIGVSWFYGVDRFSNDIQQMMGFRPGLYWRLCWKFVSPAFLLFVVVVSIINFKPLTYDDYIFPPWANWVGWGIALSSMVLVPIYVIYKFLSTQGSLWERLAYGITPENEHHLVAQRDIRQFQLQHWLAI

D1 = D1 (Homo sapiens, UniProt P21728); assay: Radioligand displacement, D1; assay type: binding
[4] = Ki, [3H] radioligand QNB, Human, Cloned
[5] = [3H] radioligand 8-OH-DPAT, Human, Cloned
[6] = Ki, [3H] radioligand GR125743, Human, Cloned
[7] = [3H] radioligand QNB, Human, Cloned, read-out: Ki

Chain of H1 (P35367 whole entry): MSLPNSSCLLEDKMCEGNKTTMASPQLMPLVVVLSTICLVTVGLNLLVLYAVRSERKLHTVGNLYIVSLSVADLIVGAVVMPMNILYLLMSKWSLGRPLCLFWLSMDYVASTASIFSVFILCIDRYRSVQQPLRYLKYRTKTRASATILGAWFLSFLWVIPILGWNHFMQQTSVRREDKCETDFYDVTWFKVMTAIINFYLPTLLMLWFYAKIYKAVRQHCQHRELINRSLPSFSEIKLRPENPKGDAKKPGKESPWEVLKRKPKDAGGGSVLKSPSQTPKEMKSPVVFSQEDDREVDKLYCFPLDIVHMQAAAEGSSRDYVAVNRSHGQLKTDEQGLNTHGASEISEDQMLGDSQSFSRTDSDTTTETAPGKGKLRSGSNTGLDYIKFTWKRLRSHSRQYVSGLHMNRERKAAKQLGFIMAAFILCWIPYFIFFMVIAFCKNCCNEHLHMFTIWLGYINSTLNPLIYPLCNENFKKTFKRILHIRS
Chain of M1 muscarinic receptors (M1-R) (P11229 whole entry): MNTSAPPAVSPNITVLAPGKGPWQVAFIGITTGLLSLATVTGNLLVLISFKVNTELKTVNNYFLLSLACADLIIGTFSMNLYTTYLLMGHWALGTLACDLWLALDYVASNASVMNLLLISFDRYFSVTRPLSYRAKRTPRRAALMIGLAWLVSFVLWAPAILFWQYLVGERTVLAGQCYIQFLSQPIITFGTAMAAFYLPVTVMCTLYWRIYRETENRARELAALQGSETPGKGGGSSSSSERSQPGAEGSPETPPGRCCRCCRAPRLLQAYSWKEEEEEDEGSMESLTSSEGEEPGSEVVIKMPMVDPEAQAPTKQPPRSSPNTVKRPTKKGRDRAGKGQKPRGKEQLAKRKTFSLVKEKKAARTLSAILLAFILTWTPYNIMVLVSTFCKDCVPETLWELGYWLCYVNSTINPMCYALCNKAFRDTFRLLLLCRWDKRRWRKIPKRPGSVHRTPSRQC
Chain of D3 (P35462 whole entry): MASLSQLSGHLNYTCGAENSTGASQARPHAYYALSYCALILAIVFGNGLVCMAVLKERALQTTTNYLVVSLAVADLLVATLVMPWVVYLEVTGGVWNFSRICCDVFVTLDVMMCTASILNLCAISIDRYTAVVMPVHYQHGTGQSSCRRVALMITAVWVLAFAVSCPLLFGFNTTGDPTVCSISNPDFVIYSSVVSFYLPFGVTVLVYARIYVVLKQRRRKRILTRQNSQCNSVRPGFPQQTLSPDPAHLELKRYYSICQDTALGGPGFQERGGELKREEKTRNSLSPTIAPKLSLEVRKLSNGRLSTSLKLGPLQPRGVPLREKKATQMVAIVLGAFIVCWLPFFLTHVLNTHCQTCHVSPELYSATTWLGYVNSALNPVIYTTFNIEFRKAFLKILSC

SMILES: N=C(N)Nc1ccc2[nH]c3c(c2c1)C[C@@]1(O)[C@H]2Cc4ccc(O)c5c4[C@@]1(CCN2CC1CC1)[C@H]3O5 [GNTI, 5′-guanidinonaltrindole]
- Ki (D3): ≥ 10 µM
- Ki (H1): ≥ 10 µM
- Ki [1]: ≥ 10 µM
- displacement from M1-R ([1]; at 10 µM, [3H]3-quinuclidinyl benzilate (QNB)): 49%
- Ki (M2; [4]): 5.37 µM
- Ki (M2; Ki, binding curve File S1, M2 Receptor, [3H]QNB (0.1 nM), Muscarinic Binding Buffer): 5.36 µM
- Ki (M2; M2, radioligand displacement (Table 1), read-out: K i): 5.4 µM
- Ki (5-HT1a; [5]): ≥ 10 µM
- Ki (GABAA): ≥ 10 µM
- Ki (DAT): ≥ 10 µM
- Ki (5-HT1d; [6]): ≥ 10 µM
- Ki (5-HT1b): ≥ 10 µM
- Ki (β2): ≥ 10 µM
- Ki (β1): ≥ 10 µM
- Ki (H2): ≥ 10 µM
- Papp A→B at 120 min [2]: 88 ×10⁻⁶ cm/s
- Papp B→A at 120 min [2]: 270 ×10⁻⁶ cm/s
- efflux ratio at 120 min [2]: 3.1
- Ki (M3): ≥ 10 µM
- Ki (α2A; Ki, [3H] radioligand Rauwolscine, Human, Cloned): ≥ 10 µM
- Ki (M5): ≥ 10 µM
- Ki (α1D): ≥ 10 µM
- Ki [3]: ≥ 10 µM
- Ki (D1): ≥ 10 µM

SMILES: CC(C)[C@@H](CN1CC[C@@](C)(c2cccc(O)c2)[C@@H](C)C1)NC(=O)[C@H]1Cc2ccc(O)cc2CN1 [JDTic]
- Ki (D3; [3H] radioligand N-Methylspiperone, Human, Cloned, read-out: Ki): ≥ 10 µM
- Ki (H1; [3H] radioligand Pyrilamine, Human, Cloned, read-out: Ki): ≥ 10 µM
- Ki [1, 7]: ≥ 10 µM
- Ki (M2; [7]): ≥ 10 µM
- Ki (M2; binding curve File S1, M2 Receptor, [3H]QNB (0.1 nM), Muscarinic Binding Buffer, read-out: Ki): > 10 µM
- Ki (5-HT1a; [5]): ≥ 10 µM
- Ki (GABAA): ≥ 10 µM
- Ki (DAT; K i, DAT, radioligand displacement (Table 1)): 4.4 µM
- Ki (DAT; Ki, [3H] radioligand WIN35428, Human, Cloned): 4.37 µM
- Ki (DAT; Ki, binding curve File S1, Dopamine Transporter, [3H]WIN35428 (3 nM), Transporter Binding Buffer): 4.37 µM
- Ki (5-HT1d): ≥ 10 µM
- Ki (5-HT1b; [3H] radioligand GR125743, Human, Cloned, read-out: Ki): ≥ 10 µM
- Ki (β2; [3H] radioligand CGP12177, Human, Cloned, read-out: Ki): ≥ 10 µM
- Ki (β1; [3H] radioligand CGP12177, Human, Heart, read-out: Ki): ≥ 10 µM
- Ki (H2; K i, H2, radioligand displacement (Table 1)): 1.8 µM
- Ki (H2; Ki, [3H] radioligand Tiotidine, Human, Cloned): 1.79 µM
- Ki (H2; Ki, binding curve File S1, H2 Receptor, [3H]Tiotidine (3 nM), Histamine Binding Buffer): 1.79 µM
- Papp A→B at 120 min [2]: 60 ×10⁻⁶ cm/s
- Papp B→A at 120 min [2]: 310 ×10⁻⁶ cm/s
- Ki (M3; [7]): ≥ 10 µM
- Ki (α2A): ≥ 10 µM
- Ki (M5; [7]): ≥ 10 µM
- Ki (α1D; read-out: Ki): ≥ 10 µM
- Ki ([3]; NET, versus [3H]nisoxetine (Table 1), read-out: K i): 0.054 µM
- Ki (D1; [3H] radioligand SCH23390, Human, Cloned, read-out: Ki): ≥ 10 µM

SMILES: Oc1ccc2c3c1O[C@H]1c4[nH]c5c(c4C[C@@]4(O)[C@@H](C2)N(CC2CC2)CC[C@]314)C[C@@]1(O)[C@H]2Cc3ccc(O)c4c3[C@@]1(CCN2CC1CC1)[C@H]5O4 [nor-BNI, Nor-binaltorphimine]
- Ki (D3): ≥ 10 µM
- Ki (H1): ≥ 10 µM
- Ki [1]: ≥ 10 µM
- Ki (M2; [4]): ≥ 10 µM
- Ki (5-HT1a; 5-HT1a, radioligand displacement (Table 1)): 1.1 µM
- Ki (5-HT1a; [5]): 1.11 µM
- Ki (5-HT1a; binding curve File S1, 5-HT1A Receptor, [3H]8-OH-DPAT (0.5 nM), Standard Binding Buffer): 1.11 µM
- Ki (GABAA): ≥ 10 µM
- Ki (DAT): ≥ 10 µM
- Ki (5-HT1d; K i, 5-HT1d, radioligand displacement (Table 1)): 1.1 µM
- Ki (5-HT1d; [6]): 1.13 µM
- Ki (5-HT1b): ≥ 10 µM
- Ki (β2): ≥ 10 µM
- Ki (β1): ≥ 10 µM
- Ki (H2): ≥ 10 µM
- Papp A→B at 120 min [2]: 51 ×10⁻⁶ cm/s
- Papp B→A at 120 min [2]: 310 ×10⁻⁶ cm/s
- Ki (M3): ≥ 10 µM
- Ki (α2A; K i, α2A, radioligand displacement (Table 1)): 4.9 µM
- Ki (M5): ≥ 10 µM
- Ki (α1D): ≥ 10 µM
- Ki [3]: ≥ 10 µM
- Ki (D1): ≥ 10 µM
